From patent US20240317735A1, “HYDROISOQUINOLINE OR HYDRONAPHTHYRIDINE COMPOUNDS FOR THE TREATMENT OF AUTOIMMUNE DISEASE” (Hoffmann-La Roche Inc., priority 2020, published 2024)

Molecular target: T1, human TLR7 (Homo sapiens, UniProt Q9NYK1)
T1 construct: host or cells: HEK293 (HEK-Blue hTLR7)
T1 sequence (Q9NYK1 27-1049): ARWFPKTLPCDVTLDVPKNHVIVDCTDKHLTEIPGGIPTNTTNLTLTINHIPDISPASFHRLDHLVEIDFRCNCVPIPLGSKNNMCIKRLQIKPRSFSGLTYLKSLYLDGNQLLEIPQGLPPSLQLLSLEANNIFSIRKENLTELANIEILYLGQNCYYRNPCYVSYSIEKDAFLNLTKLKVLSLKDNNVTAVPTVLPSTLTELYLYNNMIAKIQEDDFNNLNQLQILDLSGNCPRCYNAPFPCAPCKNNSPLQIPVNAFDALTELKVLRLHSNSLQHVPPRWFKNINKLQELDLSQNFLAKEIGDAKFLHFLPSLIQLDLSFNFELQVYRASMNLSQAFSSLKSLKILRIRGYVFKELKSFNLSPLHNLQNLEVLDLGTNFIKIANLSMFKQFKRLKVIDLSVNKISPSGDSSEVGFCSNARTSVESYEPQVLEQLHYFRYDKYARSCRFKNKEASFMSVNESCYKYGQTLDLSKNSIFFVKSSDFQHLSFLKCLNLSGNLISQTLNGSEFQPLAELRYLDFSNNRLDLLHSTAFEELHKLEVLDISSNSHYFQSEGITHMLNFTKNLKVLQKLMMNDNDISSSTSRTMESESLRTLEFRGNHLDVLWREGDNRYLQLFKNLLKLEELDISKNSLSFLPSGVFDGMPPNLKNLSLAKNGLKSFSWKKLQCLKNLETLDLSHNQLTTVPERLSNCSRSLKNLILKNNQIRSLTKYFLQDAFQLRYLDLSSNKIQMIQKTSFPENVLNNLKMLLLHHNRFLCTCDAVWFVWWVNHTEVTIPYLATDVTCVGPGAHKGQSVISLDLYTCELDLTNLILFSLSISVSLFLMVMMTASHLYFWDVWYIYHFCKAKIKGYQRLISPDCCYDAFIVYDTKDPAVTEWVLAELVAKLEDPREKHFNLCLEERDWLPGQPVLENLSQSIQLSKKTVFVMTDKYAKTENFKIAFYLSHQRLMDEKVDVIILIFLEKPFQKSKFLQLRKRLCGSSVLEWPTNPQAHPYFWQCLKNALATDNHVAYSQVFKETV
Test: HEK293-Blue-hTLR-7 cells assay (SEAP reporter, R848 stimulation)
Type: cell-based
Settings: HEK293-Blue-hTLR7 cells, R848, 20 hrs; read-out: HEK/hTLR7 IC50
Protocol: The following tests were carried out in order to determine the activity of the compounds of formula (I) and (Ia) in HEK293-Blue-hTLR-7/8/9 cells assay.
A stable HEK293-Blue-hTLR-7 cell line was purchased from InvivoGen (Cat. #: hkb-htlr7, San Diego, California, USA). These cells were originally designed for studying the stimulation of human TLR7 by monitoring the activation of NF-κB. A SEAP (secreted embryonic alkaline phosphatase) reporter gene was placed under the control of the IFN-β minimal promoter fused to five NF-κB and AP-1-binding sites. The SEAP was induced by activating NF-κB and AP-1 via stimulating HEK-Blue hTLR7 cells with TLR7 ligands. Therefore the reporter expression w % as declined by TLR7 antagonist under the stimulation of a ligand, such as R848 (Resiquimod), for incubation of 20 hrs. The cell culture supernatant SEAP reporter activity was determined using QUANTI-Blue™ kit (Cat. #: rep-qb1, Invivogen, San Diego, Ca, USA) at a wavelength of 640 nm, a detection medium that turns purple or blue in the presence of alkaline phosphatase.
HEK293-Blue-hTLR7 cells were incubated at a density of 250,000˜450,000 cells/mL in a volume of 170 μL in a 96-well plate in Dulbecco's Modified Eagle's medium (DMEM) containing 4.5 g/L glucose, 50 U/mL penicillin, […], […] Normocin, 2 mM L-glutamine, 10% (v/v) heat-inactivated fetal bovine serum with addition of 20 μL test compound in a serial dilution in the presence of final DMSO at 1% and 10 μL of 20 uM R848 in above DMEM, perform incubation under 37° C. in a C02 incubator for 20 hrs. Then 20 μL of the supernatant from each well was incubated with 180 μL Quanti-blue substrate solution at 37° C. for 2 hrs and the absorbance was read at 620˜655 nm using a spectrophotometer. The signaling pathway that TLR7 activation leads to downstream NF-κB activation has been widely accepted, and therefore similar reporter assay was modified for evaluating TLR7 antagonist.

SMILES | IC50
Cc1cc(N2Cc3ccc(N4CCNCC4)cc3[C@@H](C)C2)c2cnn(C)c2n1 [Example 2, (4R)-2-(1,6-dimethylpyrazolo[3,4-b]pyridin-4-yl)-4-methyl-6-piperazin-1-yl-3,4-dihydro-1H-isoquinoline] | 8 nM
Cc1cc(N2Cc3cnc(O[C@@H]4C[C@H]5CNCCN5C4)cc3[C@@H](C)C2)c2cnn(C)c2n1 [Example 76, (4R)-2-(1,6-dimethylpyrazolo[3,4-b]pyridin-4-yl)-4-methyl-6-[[(7R,8aS)-1,2,3,4,6,7,8,8a-octahydropyrrolo[1,2-a]pyrazin-7-yl]oxy]-3,4-dihydro-1H-2,7-naphthyridine] | 19 nM
C[C@H]1CN(c2ccnc3c2cnn3C)Cc2ccc(N3CCN(S(=O)(=O)C4CCNC4)CC3)cc21 (stereo partly drawn) [Example 33, (4R)-4-methyl-2-(1-methylpyrazolo[3,4-b]pyridin-4-yl)-6-(4-pyrrolidin-3-ylsulfonylpiperazin-1-yl)-3,4-dihydro-1H-isoquinoline] | 6 nM
C[C@H]1CN(c2ccnc3c2cnn3C)Cc2ccc(N3CCN(C(=O)C4CCCN4)CC3)cc21 (stereo partly drawn) [Example 8, pyrrolidin-2-yl-[4-[(4R)-4-methyl-2-(1-methylpyrazolo[3,4-b]pyridin-4-yl)-3,4-dihydro-1H-isoquinolin-6-yl]piperazin-1-yl]methanone] | 6 nM
Cc1cc(N2Cc3ccc(N4CCC(O)(CN(C)C)CC4)nc3[C@@H](C)C2)c2cnn(C)c2n1 [Example 61, 4-[(dimethylamino)methyl]-1-[(8S)-6-(1,6-dimethylpyrazolo[3,4-b]pyridin-4-yl)-8-methyl-7,8-dihydro-5H-1,6-naphthyridin-2-yl]piperidin-4-ol] | 3 nM
C[C@H]1CN(c2ccnc3c2cnn3C)Cc2ccc(N3C[C@]4(CCNC4)CC3=O)cc21 (single isomer, unassigned) [Example 54] | 53 nM
Cc1cc(N2Cc3ccc(N4CCC(N)CC4)nc3[C@@H](C)C2)c2cnn(C)c2n1 [Example 58, 1-[(8S)-6-(1,6-dimethylpyrazolo[3,4-b]pyridin-4-yl)-8-methyl-7,8-dihydro-5H-1,6-naphthyridin-2-yl]piperidin-4-amine] | 2 nM
C[C@H]1CN(c2ccnc3c2cnn3C)Cc2ccc(N3CCN(C(=O)C4CCNCC4)CC3)cc21 [Example 7, 4-piperidyl-[4-[(4R)-4-methyl-2-(1-methylpyrazolo[3,4-b]pyridin-4-yl)-3,4-dihydro-1H-isoquinolin-6-yl]piperazin-1-yl]methanone] | 18 nM
C[C@H]1CN(c2ccnc3c2cnn3C)Cc2ccc(N3CCC(N4CC(N)C4)CC3)cc21 [Example 28, 1-[1-[(4R)-4-methyl-2-(1-methylpyrazolo[3,4-b]pyridin-4-yl)-3,4-dihydro-1H-isoquinolin-6-yl]-4-piperidyl]azetidin-3-amine] | 4 nM
COC[C@H]1CN(c2cc3c(cn2)CN(c2cc(C)nc4c2cnn4C)C[C@@H]3C)CCN1 [Example 81, (4R)-2-(1,6-dimethylpyrazolo[3,4-b]pyridin-4-yl)-4-methyl-6-[(3R)-3-(methoxymethyl)piperazin-1-yl]-3,4-dihydro-1H-2,7-naphthyridine] | 41 nM
C[C@H]1CN(c2ccnc3c2cnn3C)Cc2ccc(N3C[C@@H]4CCNCC4C3=O)cc21 (relative stereo) [Example 55, cis-2-[(4R)-4-methyl-2-(1-methylpyrazolo[3,4-b]pyridin-4-yl)-3,4-dihydro-1H-isoquinolin-6-yl]-3a,4,5,6,7,7a-hexahydro-1H-pyrrolo[3,4-c]pyridin-3-one] | 7 nM
C[C@H]1CN(c2ccnc3c2cnn3C)Cc2ccc(N3CC4(CNCCO4)C3)cc21 [Example 21, 2-[(4R)-4-methyl-2-(1-methylpyrazolo[3,4-b]pyridin-4-yl)-3,4-dihydro-1H-isoquinolin-6-yl]-5-oxa-2,8-diazaspiro[3.5]nonane] | 7 nM
C[C@H]1CN(c2ccnc3c2cnn3C)Cc2ccc(N3CCN(CCN(C)C)CC3)cc21 [Example 38, N,N-dimethyl-2-[4-[(4R)-4-methyl-2-(1-methylpyrazolo[3,4-b]pyridin-4-yl)-3,4-dihydro-1H-isoquinolin-6-yl]piperazin-1-yl]ethanamine] | 3 nM
Cc1cc(N2Cc3ccc(N4CCC(N(C)C)CC4)nc3[C@@H](C)C2)c2cnn(C)c2n1 [Example 60, N,N-dimethyl-1-[(8S)-6-(1,6-dimethylpyrazolo[3,4-b]pyridin-4-yl)-8-methyl-7,8-dihydro-5H-1,6-naphthyridin-2-yl]piperidin-4-amine] | 3 nM
CO[C@@H]1CN(c2ccc3c(c2)[C@@H](C)CN(c2ccnc4c2cnn4C)C3)C[C@H]1N [Example 20, (3R,4R)-4-methoxy-1-[(4R)-4-methyl-2-(1-methylpyrazolo[3,4-b]pyridin-4-yl)-3,4-dihydro-1H-isoquinolin-6-yl]pyrrolidin-3-amine] | 3 nM
C[C@H]1CN(c2ccnc3c2cnn3C)Cc2ccc(N3CCNC(CO)C3)cc21 (stereo partly drawn) [Example 49, [4-[(4R)-4-methyl-2-(1-methylpyrazolo[3,4-b]pyridin-4-yl)-3,4-dihydro-1H-isoquinolin-6-yl]piperazin-2-yl]methanol] | 5 nM
C[C@H]1CN(c2ccnc3c2cnn3C)Cc2ccc(N3CCN[C@@H](CO)C3)cc21 [Example 50, [(2R)-4-[(4R)-4-methyl-2-(1-methylpyrazolo[3,4-b]pyridin-4-yl)-3,4-dihydro-1H-isoquinolin-6-yl]piperazin-2-yl]methanol] | 10 nM
C[C@H]1CN(c2ccnc3c2cnn3C)Cc2ccc(N3CC4CNC[C@H]4C3=O)cc21 (relative stereo) [Example 17, cis-5-[(4R)-4-methyl-2-(1-methylpyrazolo[3,4-b]pyridin-4-yl)-3,4-dihydro-1H-isoquinolin-6-yl]-1,2,3,3a,6,6a-hexahydropyrrolo[3,4-c]pyrrol-4-one] | 8 nM
C[C@H]1CN(c2ccnc3c2cnn3C)Cc2ccc(N3CCNCC3)nc21 [Example 62, (8S)-8-methyl-6-(1-methylpyrazolo[3,4-b]pyridin-4-yl)-2-piperazin-1-yl-7,8-dihydro-5H-1,6-naphthyridine] | 5 nM
C[C@H]1CN(c2ccnc3c2cnn3C)Cc2ccc(N3C[C@@H](N)[C@H](O)C3)cc21 [Example 46, trans-4-amino-1-[(4R)-4-methyl-2-(1-methylpyrazolo[3,4-b]pyridin-4-yl)-3,4-dihydro-1H-isoquinolin-6-yl]pyrrolidin-3-ol] | 10 nM
C[C@H]1CN(c2ccnc3c2cnn3C)Cc2ccc(N3CCNCC3)cc21 [Example 1, (4R)-4-methyl-2-(1-methylpyrazolo[3,4-b]pyridin-4-yl)-6-piperazin-1-yl-3,4-dihydro-1H-isoquinoline] | 3 nM
C[C@H]1CN(c2ccnc3c2cnn3C)Cc2ccc(OC[C@H]3CNCCN3C)cc21 [Example 43, (4R)-4-methyl-2-(1-methylpyrazolo[3,4-b]pyridin-4-yl)-6-[[(2R)-1-methylpiperazin-2-yl]methoxy]-3,4-dihydro-1H-isoquinoline] | 8 nM
Cc1cc(N2Cc3ccc(N4CCN(C)CC4)nc3[C@@H](C)C2)c2cnn(C)c2n1 [Example 67, (8S)-6-(1,6-dimethylpyrazolo[3,4-b]pyridin-4-yl)-8-methyl-2-(4-methylpiperazin-1-yl)-7,8-dihydro-5H-1,6-naphthyridine] | 11 nM
